Results taken from ChEMBL document CHEMBL3865793, “Non-specific binding sites help to explain mixed inhibition in mushroom tyrosinase activities” (Eur J Med Chem, 2016).
The source made the active and inactive calls. No cut-off for these calls is given here.

How the values were obtained:
[1] = target: T1, Mushroom tyrosinase (Agaricus bisporus) (UniProt O42713+Q00024+C7FF04+C7FF05); assay: Inhibition of cresolase activity of mushroom tyrosinase at <5 uM using 4-[(4-Methylphenyl) azo]-phenol as substrate
[2] = target: T1, Mushroom tyrosinase (Agaricus bisporus); assay: Inhibition of cresolase activity of mushroom tyrosinase at 0 to 10.5 uM using 23 to 50.05 uM of 4-[(4-Methylphenyl) azo]-phenol as substrate
[3] = target: T1, Mushroom tyrosinase (Agaricus bisporus); assay: Mixed type activation of cresolase activity of mushroom tyrosinase at 5 to 10.5 uM using 4-[(4-Methylphenyl) azo]-phenol as substrate by Lineweaver-Burk plot analysis
[4] = target: T1, Mushroom tyrosinase (Agaricus bisporus); assay: Activation of cresolase activity of mushroom tyrosinase assessed as inverse of activation constant after 15 mins using 4-[(4-Methylphenyl) azo]-phenol as substrate
[5] = target: T1, Mushroom tyrosinase (Agaricus bisporus); assay: Activation of cresolase activity of mushroom tyrosinase at <= 10 uM after 15 mins using 4-[(4-Methylphenyl) azo]-phenol as substrate relative to untreated control
[6] = target: T1, Mushroom tyrosinase (Agaricus bisporus); assay: Mixed type activation of cresolase activity of mushroom tyrosinase using 4-[(4-Methylphenyl) azo]-phenol as substrate by Dixon plot analysis
[7] = target: T1, Mushroom tyrosinase (Agaricus bisporus); assay: Activation of cresolase activity of mushroom tyrosinase at >5 uM after 15 mins using 4-[(4-Methylphenyl) azo]-phenol as substrate
[8] = target: T1, Mushroom tyrosinase (Agaricus bisporus); assay: Activation of cresolase activity of mushroom tyrosinase assessed as activation constant after 15 mins using 4-[(4-Methylphenyl) azo]-phenol as substrate
[9] = target: T1, Mushroom tyrosinase (Agaricus bisporus); assay: Activation of cresolase activity of mushroom tyrosinase at <150 uM using 4-[(4-Methylphenyl) azo]-phenol as substrate measured after 15 mins by spectrophotometric method
[10] = target: T1, Mushroom tyrosinase (Agaricus bisporus); assay: Activation of cresolase activity of mushroom tyrosinase assessed as dissociation constant for substrate after 15 mins using 4-[(4-Methylphenyl) azo]-phenol as substrate
[11] = target: T1, Mushroom tyrosinase (Agaricus bisporus); assay: Inhibition of cresolase activity of mushroom tyrosinase at 0 to 450 uM using 18 to 61 uM of 4-[(4-Methylphenyl) azo]-phenol as substrate
[12] = target: T1, Mushroom tyrosinase (Agaricus bisporus); assay: Activation of cresolase activity of mushroom tyrosinase at 50 to 150 uM using 4-[(4-Methylphenyl) azo]-phenol as substrate by Lineweaver-Burk plot analysis
[13] = target: T1, Mushroom tyrosinase (Agaricus bisporus); assay: Activation of cresolase activity of mushroom tyrosinase at 18 uM using 4-[(4-Methylphenyl) azo]-phenol as substrate by Dixon plot analysis
[14] = target: T1, Mushroom tyrosinase (Agaricus bisporus); assay: Activation of cresolase activity of mushroom tyrosinase at <= 150 uM after 15 mins using 4-[(4-Methylphenyl) azo]-phenol as substrate relative to untreated control
[15] = target: Mushroom tyrosinase (Agaricus bisporus, UniProt O42713+Q00024+C7FF04+C7FF05); assay: Inhibition of cresolase activity of mushroom tyrosinase using 4-[(4-Methylphenyl) azo]-phenol as substrate measured after 15 mins by spectrophotometric method
[16] = target: T1, Mushroom tyrosinase (Agaricus bisporus); assay: Inhibition of cresolase activity of mushroom tyrosinase at >150 uM using 4-[(4-Methylphenyl) azo]-phenol as substrate measured after 15 mins by spectrophotometric method
[17] = system: O=C(O)/C=C/c1ccccc1; assay: (§1) Activation of cresolase activity of mushroom tyrosinase assessed as Vmax after 15 mins using 4-[(4-Methylphenyl) azo]-phenol as substrate; conditions: Agaricus bisporus
[18] = system: O=C(O)c1ccccc1C(=O)O; assay: as §1; conditions: Agaricus bisporus

Chain of Mushroom tyrosinase (Agaricus bisporus) (from UniProt O42713+Q00024+C7FF04+C7FF05) (C7FF05 whole entry, looked up): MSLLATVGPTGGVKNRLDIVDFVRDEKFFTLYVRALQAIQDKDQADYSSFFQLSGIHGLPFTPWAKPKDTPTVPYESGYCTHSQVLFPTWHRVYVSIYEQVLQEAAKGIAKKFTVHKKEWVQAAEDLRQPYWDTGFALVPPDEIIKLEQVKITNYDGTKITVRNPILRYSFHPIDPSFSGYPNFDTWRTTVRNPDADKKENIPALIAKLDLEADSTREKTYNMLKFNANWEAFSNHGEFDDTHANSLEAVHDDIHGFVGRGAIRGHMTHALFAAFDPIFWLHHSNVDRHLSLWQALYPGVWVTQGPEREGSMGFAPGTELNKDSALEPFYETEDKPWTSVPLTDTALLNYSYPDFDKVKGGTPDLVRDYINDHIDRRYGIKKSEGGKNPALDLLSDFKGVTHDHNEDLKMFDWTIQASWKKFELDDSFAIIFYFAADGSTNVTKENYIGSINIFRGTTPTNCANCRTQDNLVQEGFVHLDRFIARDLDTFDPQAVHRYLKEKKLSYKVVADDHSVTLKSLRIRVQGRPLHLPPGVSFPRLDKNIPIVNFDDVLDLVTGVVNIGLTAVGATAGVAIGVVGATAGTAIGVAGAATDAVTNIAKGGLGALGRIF
Chain of Mushroom tyrosinase (Agaricus bisporus) (from UniProt O42713+Q00024+C7FF04+C7FF05) (C7FF04 whole entry, looked up): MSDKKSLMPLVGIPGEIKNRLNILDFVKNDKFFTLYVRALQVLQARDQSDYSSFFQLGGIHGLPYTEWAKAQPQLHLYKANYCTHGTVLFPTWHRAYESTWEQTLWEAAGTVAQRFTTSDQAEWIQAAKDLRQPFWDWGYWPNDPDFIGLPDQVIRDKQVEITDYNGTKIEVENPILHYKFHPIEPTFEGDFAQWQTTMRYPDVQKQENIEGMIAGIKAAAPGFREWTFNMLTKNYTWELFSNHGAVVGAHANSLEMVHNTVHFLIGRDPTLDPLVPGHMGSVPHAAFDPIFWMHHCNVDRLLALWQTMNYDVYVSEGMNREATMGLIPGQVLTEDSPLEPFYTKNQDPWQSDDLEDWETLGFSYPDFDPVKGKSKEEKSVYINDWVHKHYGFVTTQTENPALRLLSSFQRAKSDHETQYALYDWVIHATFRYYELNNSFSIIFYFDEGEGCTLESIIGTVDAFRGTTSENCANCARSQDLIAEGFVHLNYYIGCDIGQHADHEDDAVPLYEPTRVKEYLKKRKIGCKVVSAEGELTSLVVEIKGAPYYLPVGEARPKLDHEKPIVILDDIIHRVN
Chain of Mushroom tyrosinase (Agaricus bisporus) (from UniProt O42713+Q00024+C7FF04+C7FF05) (Q00024 whole entry, looked up): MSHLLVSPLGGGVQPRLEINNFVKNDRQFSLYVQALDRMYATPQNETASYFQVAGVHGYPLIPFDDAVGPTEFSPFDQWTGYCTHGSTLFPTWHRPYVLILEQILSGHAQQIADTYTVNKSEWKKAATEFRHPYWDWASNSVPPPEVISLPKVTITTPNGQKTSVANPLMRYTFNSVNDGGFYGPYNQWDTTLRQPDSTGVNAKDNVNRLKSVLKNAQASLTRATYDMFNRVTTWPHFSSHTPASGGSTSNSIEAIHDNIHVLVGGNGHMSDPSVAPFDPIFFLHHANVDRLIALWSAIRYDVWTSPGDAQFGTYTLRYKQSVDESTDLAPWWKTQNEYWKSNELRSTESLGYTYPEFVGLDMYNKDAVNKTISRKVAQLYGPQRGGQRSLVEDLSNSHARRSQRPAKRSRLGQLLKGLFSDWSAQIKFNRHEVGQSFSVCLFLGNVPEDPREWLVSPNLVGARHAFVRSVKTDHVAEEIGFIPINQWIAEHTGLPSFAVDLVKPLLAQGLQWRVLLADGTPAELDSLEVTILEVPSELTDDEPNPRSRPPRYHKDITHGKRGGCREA
Chain of Mushroom tyrosinase (Agaricus bisporus) (from UniProt O42713+Q00024+C7FF04+C7FF05) (O42713 whole entry, looked up): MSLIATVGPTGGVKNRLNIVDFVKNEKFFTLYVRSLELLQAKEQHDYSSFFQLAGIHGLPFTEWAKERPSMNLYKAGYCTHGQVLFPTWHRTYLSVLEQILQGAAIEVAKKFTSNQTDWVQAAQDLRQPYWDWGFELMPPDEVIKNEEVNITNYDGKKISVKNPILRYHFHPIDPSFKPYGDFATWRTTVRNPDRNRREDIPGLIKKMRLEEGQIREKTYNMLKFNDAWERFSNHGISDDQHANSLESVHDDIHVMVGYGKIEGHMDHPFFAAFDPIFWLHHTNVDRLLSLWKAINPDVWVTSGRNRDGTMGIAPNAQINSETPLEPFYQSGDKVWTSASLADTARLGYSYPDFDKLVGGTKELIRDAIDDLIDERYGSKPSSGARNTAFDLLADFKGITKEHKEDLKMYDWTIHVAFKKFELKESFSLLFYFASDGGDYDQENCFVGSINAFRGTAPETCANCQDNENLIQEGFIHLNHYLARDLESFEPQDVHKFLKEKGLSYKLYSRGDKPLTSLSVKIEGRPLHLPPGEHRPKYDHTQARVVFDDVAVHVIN

**Q.** With O=C(O)/C=C/c1ccccc1 as the compound, how does the inhibition [1] read?
**A.** Active

**Q.** What about the inhibition [2] of the same compound?
**A.** Active

**Q.** What about the Activity [3] of the same compound?
**A.** Active

**Q.** And the Ka [4]?
**A.** 185 mM⁻¹

**Q.** What about the fold change (FC) [5] of the same compound?
**A.** 2

**Q.** What about the Activity [6] of the same compound?
**A.** Active

**Q.** What about the Activity [7] of the same compound?
**A.** Active

**Q.** And the KA [8]?
**A.** 5.41 µM

**Q.** O=C(O)c1ccccc1C(=O)O [PHTHALIC ACID] was tested. Which Activity [9] did it give?
**A.** Active

**Q.** What about the K [10] of the same compound?
**A.** 67.2 µM

**Q.** And the inhibition [11]?
**A.** Active

**Q.** What about the Activity [12] of the same compound?
**A.** Active

**Q.** What about the Activity [13] of the same compound?
**A.** Active

**Q.** And the Ka [4]?
**A.** 91.3 mM⁻¹

**Q.** What about the Activity [14] of the same compound?
**A.** 11 to 23%

**Q.** And the KA [8]?
**A.** 10.9 µM

**Q.** And the IC50 [15]?
**A.** 271.79 µM

**Q.** What about the Ki [15] of the same compound?
**A.** 100 µM

**Q.** What about the inhibition [16] of the same compound?
**A.** Active

**Q.** For “Mushroom tyrosinase (Agaricus bisporus) (from UniProt O42713+Q00024+C7FF04+C7FF05)”, which Vmax [17] is on record?
**A.** 7.9 µM/min

**Q.** And the Vmax [18]?
**A.** 14.5 µM/min
